≈ marks a conversion by molar mass, not a printed value.
Legend:
[1] = tested on: C. gattii clinical isolates; test: Susceptibility to clinically available antifungals, CLSI M27-A3 microdilution; format: cell-based; settings: Cryptococcus gattii
Text: (§1) Six clinical isolates belonging to the Cryptococcus genus were obtained from patients who attended the Instituto Nacional de Infectologia Evandro Chagas (INI), Fundação Oswaldo Cruz (FIOCRUZ), and were kindly provided by Dr. Rodrigo Almeida-Paes (INI-FIOCRUZ). To comply with ethical standards and institutional agreements between UFRJ and FIOCRUZ, patient data were not disclosed. In this sense, the C. neoformans isolates were designated CFP00213 (213), CFP00223 (223), and CFP00350 (350), while the C. gattii isolates were labeled CFP00023 (23), CFP00025 (25), and CFP00027 (27). Before each experiment, an aliquot of the culture was transferred from Sabouraud dextrose agar (2% glucose, 1% peptone, and 0.5% yeast extract) to RPMI 1640 medium (Sigma-Aldrich, St. Louis, MO, USA), pH 7.2, buffered with 0.165 M MOPS (Sigma-Aldrich, St. Louis, MO, USA). RPMI medium induces the expression of capsular polysaccharides, the primary virulence factor of Cryptococcus cells. The cultures were incubated at 37 °C for 48 h to promote cell proliferation, stimulate metabolic activation, and enhance capsular development. Yeast cell counts were determined using a Neubauer chamber.
(§2) The susceptibility profile was evaluated using the microdilution method in RPMI 1640 medium buffered with 0.165 M MOPS, following the M27-A3 protocol for yeasts established by the Clinical and Laboratory Standards Institute (CLSI). […] Each fungal isolate was classified as either wild-type or non-wild-type for each antifungal based on the epidemiological cutoff values provided in CLSI M59 ED3, 2020 [32].

[2] = tested on: C. neoformans clinical isolates; test: as above; format: cell-based; settings: Cryptococcus neoformans
Text: as §1, §2

[3] = tested on: six clinical Cryptococcus isolates; test: Susceptibility to clinically available antifungals, all six isolates; format: cell-based, Cryptococcus neoformans and Cryptococcus gattii; settings: across all six clinical Cryptococcus isolates
Text: as §1, §2

G. mellonella larvae = tested on: G. mellonella larvae; parameters: method as in PMID 32265890; settings: cited from earlier work; for Toxicity in G. mellonella larvae: up to 500 µg/mL, within 72 h; for Mortality rate in G. mellonella larvae: 750 µg/mL
G. mellonella = settings: cited from earlier work

**Q.** Which MIC ([1]; 24 h, C. gattii isolate 23, 37 °C) does the source give for C[C@@H](c1ncncc1F)[C@](O)(Cn1cncn1)c1ccc(F)cc1F [Voriconazole, voriconazole] here?
**A.** 4 µg/mL

**Q.** What about the MIC ([1]; 24 h, C. gattii isolate 25, 37 °C) of the same compound?
**A.** 2 µg/mL

**Q.** And the MIC ([1]; 24 h, C. gattii isolate 27, 37 °C)?
**A.** 4 µg/mL

**Q.** What about the MIC ([1]; C. gattii isolate 23, value in brackets) of the same compound?
**A.** 11.4 µM

**Q.** And the MIC ([1]; C. gattii isolate 25, value in brackets)?
**A.** 5.72 µM

**Q.** And the MIC ([1]; C. gattii isolate 27, value in brackets)?
**A.** 11.4 µM

**Q.** What about the MIC ([2]; 24 h, C. neoformans isolate 213, 37 °C) of the same compound?
**A.** 0.5 µg/mL

**Q.** What about the MIC ([2]; 24 h, C. neoformans isolate 223, 37 °C) of the same compound?
**A.** 16 µg/mL

**Q.** What about the MIC ([2]; 24 h, C. neoformans isolate 350, 37 °C) of the same compound?
**A.** 2 µg/mL

**Q.** What about the MIC ([2]; C. neoformans isolate 213, value in brackets) of the same compound?
**A.** 1.4 µM

**Q.** What about the MIC ([2]; C. neoformans isolate 223, value in brackets) of the same compound?
**A.** 45.8 µM

**Q.** What about the MIC ([2]; C. neoformans isolate 350, value in brackets) of the same compound?
**A.** 5.72 µM

**Q.** What about the MIC [3] of the same compound?
**A.** 0.5 to 16 µg/mL (≈ 1.43 to 45.8 µM)

**Q.** With [Ag+].[O-][Cl+3]([O-])([O-])[O-].c1cnc2c(c1)ccc1cccnc12.c1cnc2c(c1)ccc1cccnc12 [[Ag(1,10-phenanthroline)2]ClO4] as the compound, how does the “Toxicity in G. mellonella larvae” value (G. mellonella larvae) read?
**A.** no toxicity

**Q.** And the Galiomycin expression (G. mellonella)?
**A.** increased

**Q.** And the “RNA levels encoding transferrin and inducible metalloproteinase inhibitor protein (IMPI)” value (G. mellonella)?
**A.** increased

**Q.** For O.O.O.O.O=C([O-])c1cccc(C(=O)[O-])c1.O=C([O-])c1cccc(C(=O)[O-])c1.[Mn+2].[Mn+2].c1cnc2c(c1)ccc1cccnc12.c1cnc2c(c1)ccc1cccnc12.c1cnc2c(c1)ccc1cccnc12 [[Mn2(isophthalic acid)2(1,10-phenanthroline)3]·4H2O], which “RNA levels encoding transferrin and inducible metalloproteinase inhibitor protein (IMPI)” value (G. mellonella) is on record?
**A.** increased

**Q.** With O.O.O=C([O-])c1ccccc1C(=O)[O-].[Mn+2].c1cnc2c(c1)ccc1cccnc12 [[Mn(phthalic acid)(1,10-phenanthroline)(H2O)2]] as the compound, how does the “Mortality rate in G. mellonella larvae” value (G. mellonella larvae) read?
**A.** 40%

**Q.** And the “Toxicity in G. mellonella larvae” value (G. mellonella larvae)?
**A.** no toxicity

**Q.** Which Gallerimycin expression (G. mellonella) does the source give for O.O.O.O.O.O=C([O-])c1ccc(C(=O)[O-])cc1.[Mn+2].c1cnc2c(c1)ccc1cccnc12.c1cnc2c(c1)ccc1cccnc12 [[Mn(terephthalic acid)(1,10-phenanthroline)2]·5H2O] here?
**A.** upregulated

**Q.** And the “RNA levels encoding transferrin and inducible metalloproteinase inhibitor protein (IMPI)” value (G. mellonella)?
**A.** increased

**Q.** For O.O.O.O.O.O.O.O.O.O.O.O.O.O.O.O.O=C([O-])c1cccc(C(=O)[O-])c1.O=C([O-])c1cccc(C(=O)[O-])c1.[Mn+2].[Mn+2].c1cnc2c(c1)ccc1cccnc12.c1cnc2c(c1)ccc1cccnc12.c1cnc2c(c1)ccc1cccnc12.c1cnc2c(c1)ccc1cccnc12.c1cnc2c(c1)ccc1cccnc12 [{[Mn(1,10-phenanthroline)2(H2O)2]}2(isophthalic acid)2(1,10-phenanthroline)·12H2O], which “Mortality rate in G. mellonella larvae” value (G. mellonella larvae) is on record?
**A.** 13%

**Q.** Which results are given for “{[Cu(3,6,9-trioxaundecanedioic acid)(1,10-phenanthroline)2]3H2O·EtOH}n”?
**A.** Mortality rate in G. mellonella larvae (G. mellonella larvae): 60%; Toxicity in G. mellonella larvae (G. mellonella larvae): no toxicity

**Q.** With “{[Mn(3,6,9-trioxoundecanedioic acid)(1,10-phenanthroline)2]·3H2O·EtOH}n” as the compound, how does the “RNA levels encoding transferrin and inducible metalloproteinase inhibitor protein (IMPI)” value (G. mellonella) read?
**A.** increased

Reference: PMC12193833, “Toxicity Assessment and Antifungal Potential of Copper(II) and Silver(I) Complexes with 1,10-Phenanthroline-5,6-dione Against Drug-Resistant Clinical Isolates of Cryptococcus gattii and Cryptococcus neoformans” (Journal of Fungi, 2025)
